# In US20220388964A1 (HiberCell, Inc., priority 2019, published 2022):
# Target: GCN2 (Homo sapiens, UniProt Q9P2K8)
# Experiment: TR-FRET assay for inhibition of GCN2 (Example 107, for Examples 40-72)
# Chain of GCN2 (Q9P2K8 whole entry): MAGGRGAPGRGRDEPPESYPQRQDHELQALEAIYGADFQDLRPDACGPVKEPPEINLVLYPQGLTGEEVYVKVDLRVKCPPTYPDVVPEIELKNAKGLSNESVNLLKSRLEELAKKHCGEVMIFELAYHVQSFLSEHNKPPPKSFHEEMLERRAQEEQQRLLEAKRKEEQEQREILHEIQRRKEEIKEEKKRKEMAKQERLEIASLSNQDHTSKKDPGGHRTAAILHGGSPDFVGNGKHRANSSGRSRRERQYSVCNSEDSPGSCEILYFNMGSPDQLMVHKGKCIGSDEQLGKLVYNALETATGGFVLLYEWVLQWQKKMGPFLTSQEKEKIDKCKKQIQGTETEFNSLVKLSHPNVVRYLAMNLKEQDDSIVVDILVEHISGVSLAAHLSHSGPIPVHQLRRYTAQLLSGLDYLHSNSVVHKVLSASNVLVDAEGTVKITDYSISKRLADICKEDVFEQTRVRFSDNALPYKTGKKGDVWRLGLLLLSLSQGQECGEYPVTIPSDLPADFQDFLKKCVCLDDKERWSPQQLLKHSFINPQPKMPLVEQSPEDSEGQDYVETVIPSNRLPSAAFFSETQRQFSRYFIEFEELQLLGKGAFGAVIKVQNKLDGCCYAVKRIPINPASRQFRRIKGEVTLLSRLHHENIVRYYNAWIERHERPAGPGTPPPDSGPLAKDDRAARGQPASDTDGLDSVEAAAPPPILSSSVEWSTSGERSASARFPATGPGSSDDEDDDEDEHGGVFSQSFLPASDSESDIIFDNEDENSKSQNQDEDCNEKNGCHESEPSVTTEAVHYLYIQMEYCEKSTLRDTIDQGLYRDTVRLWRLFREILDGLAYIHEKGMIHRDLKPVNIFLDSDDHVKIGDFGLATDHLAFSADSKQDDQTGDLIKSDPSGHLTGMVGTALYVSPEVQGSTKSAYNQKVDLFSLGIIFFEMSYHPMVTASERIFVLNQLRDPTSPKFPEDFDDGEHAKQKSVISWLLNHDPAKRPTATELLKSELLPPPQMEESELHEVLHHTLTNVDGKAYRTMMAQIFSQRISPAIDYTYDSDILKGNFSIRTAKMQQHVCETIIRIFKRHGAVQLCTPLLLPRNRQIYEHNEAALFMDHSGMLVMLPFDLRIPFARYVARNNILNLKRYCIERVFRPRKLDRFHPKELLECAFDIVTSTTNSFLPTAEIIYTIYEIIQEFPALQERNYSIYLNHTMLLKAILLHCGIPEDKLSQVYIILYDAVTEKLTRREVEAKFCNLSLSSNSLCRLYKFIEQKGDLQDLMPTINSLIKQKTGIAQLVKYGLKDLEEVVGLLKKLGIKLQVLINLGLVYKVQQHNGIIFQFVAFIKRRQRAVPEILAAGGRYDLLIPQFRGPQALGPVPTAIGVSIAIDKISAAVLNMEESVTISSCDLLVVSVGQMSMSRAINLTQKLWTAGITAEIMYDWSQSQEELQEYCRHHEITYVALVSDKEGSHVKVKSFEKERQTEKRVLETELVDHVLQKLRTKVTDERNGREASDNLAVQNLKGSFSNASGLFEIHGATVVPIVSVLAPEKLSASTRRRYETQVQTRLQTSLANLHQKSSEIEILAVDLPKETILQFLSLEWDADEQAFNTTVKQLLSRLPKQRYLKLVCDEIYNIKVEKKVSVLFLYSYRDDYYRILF
row,Structure (SMILES),IC50 [nM]
1,"CNC(=O)c1n[nH]c2c(F)c(-c3c(F)ccc(NS(=O)(=O)c4cc(C#N)cnc4OC)c3F)ncc12 [Example 71, 6-[3-(5-Cyano-2-methoxypyridine-3-sulfonamido)-2,6-difluorophenyl]-7-fluoro-N-methyl-1H-pyrazolo[4,3-c]pyridine-3-carboxamide]",< 500
2,"CNC(=O)c1n[nH]c2c(F)c(-c3c(F)ccc(NS(=O)(=O)c4cccc5[nH]cnc45)c3F)ccc12 [Example 62, 6-[3-(1H-1,3-Benzodiazole-4-sulfonamido)-2,6-difluorophenyl]-7-fluoro-N-methyl-1H-indazole-3-carboxamide]",500 to 2500
3,"COc1ncc(Cl)cc1S(=O)(=O)Nc1ccc(F)c(-c2ccc3c(C(=O)NC4CCCOC4)n[nH]c3c2F)c1F (stereo not shown) [Example 55, 6-[3-(5-Chloro-2-methoxypyridine-3-sulfonamido)-2,6-difluorophenyl]-7-fluoro-N-(oxan-3-yl)-1H-indazole-3-carboxamide]",< 500
4,"CNC(=O)c1n[nH]c2c(F)c(-c3c(F)ccc(NS(=O)(=O)c4cccc5occc45)c3F)ccc12 [Example 61, 6-[3-(1-Benzofuran-4-sulfonamido)-2,6-difluorophenyl]-7-fluoro-N-methyl-1H-indazole-3-carboxamide]",< 500
5,"COc1ncc(Cl)cc1S(=O)(=O)Nc1ccc(F)c(-c2ccc3c(-c4ncco4)n[nH]c3c2F)c1F [Example 64, 5-chloro-N-[2,4-difluoro-3-[7-fluoro-3-(1,3-oxazol-2-yl)-1H-indazol-6-yl]phenyl]-2-methoxypyridine-3-sulfonamide]",< 500
6,"COc1ncc(Cl)cc1S(=O)(=O)Nc1ccc(F)c(-c2ccc3c(C(=O)NC4CCNC4)n[nH]c3c2F)c1F (stereo not shown) [Example 57, 6-[3-(5-Chloro-2-methoxypyridine-3-sulfonamido)-2,6-difluorophenyl]-7-fluoro-N-(pyrrolidin-3-yl)-1H-indazole-3-carboxamide]",< 500
7,"COc1ncc(Cl)cc1S(=O)(=O)Nc1ccc(F)c(-c2ccc3c(C(=O)NC4CCC(=O)N(C)C4)n[nH]c3c2F)c1F (stereo not shown) [Example 50, 6-[3-(5-Chloro-2-methoxypyridine-3-sulfonamido)-2,6-difluorophenyl]-7-fluoro-N-(1-methyl-6-oxopiperidin-3-yl)-1H-indazole-3-carboxamide]",< 500
8,"CNC(=O)c1n[nH]c2c(F)c(-c3c(F)ccc(NS(=O)(=O)c4cc(F)cnc4C)c3F)ccc12 [Example 65, 6-[2,6-difluoro-3-(5-fluoro-2-methylpyridine-3-sulfonamido)phenyl]-7-fluoro-N-methyl-1H-indazole-3-carboxamide]",< 500
9,"CNC(=O)c1n[nH]c2c(F)c(-c3c(F)ccc(NS(=O)(=O)c4cccc5ncn(C)c45)c3F)ccc12 [Example 63, 6-[2,6-Difluoro-3-(3-methyl-1,3-benzodiazole-4-sulfonamido)phenyl]-7-fluoro-N-methyl-1H-indazole-3-carboxamide]",< 500
10,"CNC(=O)c1n[nH]c2c(F)c(-c3c(F)ccc(NS(=O)(=O)c4cc(C#N)cnc4OC(F)F)c3F)ccc12 [Example 46, 6-[3-[5-Cyano-2-(difluoromethoxy)pyridine-3-sulfonamido]-2,6-difluorophenyl]-7-fluoro-N-methyl-1H-indazole-3-carboxamide]",< 500
11,"CNC(=O)c1n[nH]c2c(F)c(-c3c(F)ccc(NS(=O)(=O)c4cccc(CO)c4)c3F)ccc12 [Example 41, 6-[2,6-Difluoro-3-[3-(hydroxymethyl)benzenesulfonamido]phenyl]-7-fluoro-N-methyl-1H-indazole-3-carboxamide]",500 to 2500
12,"COc1ncc(Cl)cc1S(=O)(=O)Nc1ccc(F)c(-c2ccc3c(C(=O)NC4CCNC4=O)n[nH]c3c2F)c1F (stereo not shown) [Example 54, 6-[3-(5-Chloro-2-methoxypyridine-3-sulfonamido)-2,6-difluorophenyl]-7-fluoro-N-(2-oxopyrrolidin-3-yl)-1H-indazole-3-carboxamide]",< 500
13,"CNC(=O)c1n[nH]c2c(F)c(-c3c(F)ccc(NS(=O)(=O)c4cccc5c4ncn5C)c3F)ccc12 [Example 69, 6-[2,6-Difluoro-3-(1-methyl-1,3-benzodiazole-4-sulfonamido)phenyl]-7-fluoro-N-methyl-1H-indazole-3-carboxamide]",500 to 2500
14,CNC(=O)c1n[nH]c2c(F)c(-c3c(F)ccc(NS(=O)(=O)c4ccc5ccoc5c4)c3F)ccc12 [Example 68],500 to 2500
15,"CNC(=O)c1n[nH]c2c(F)c(-c3c(F)ccc(NS(=O)(=O)c4cc(F)cc(CO)c4)c3F)ccc12 [Example 42, 6-[2,6-difluoro-3-[3-fluoro-5-(hydroxymethyl)benzenesulfonamido]phenyl]-7-fluoro-N-methyl-1H-indazole-3-carboxamide]",< 500
16,"COc1ncc(Cl)cc1S(=O)(=O)Nc1ccc(F)c(-c2ccc3c(C(=O)NC4CCN(C(C)=O)C4)n[nH]c3c2F)c1F (stereo not shown) [Example 51, N-(1-acetylpyrrolidin-3-yl)-6-[3-(5-chloro-2-methoxypyridine-3-sulfonamido)-2,6-difluorophenyl]-7-fluoro-1H-indazole-3-carboxamide]",< 500
17,"CNC(=O)c1n[nH]c2c(F)c(-c3c(F)ccc(NS(=O)(=O)c4cc(F)cnc4C)c3F)ncc12 [Example 66, 6-[2,6-Difluoro-3-(5-fluoro-2-methylpyridine-3-sulfonamido)phenyl]-7-fluoro-N-methyl-1H-pyrazolo[4,3-c]pyridine-3-carboxamide]",< 500

# The next lines start with the values.
row,IC50 [nM],Structure (SMILES)
1,< 500,"COc1ncc(Cl)cc1S(=O)(=O)Nc1ccc(F)c(-c2ccc3c(C(=O)NCC(C)O)n[nH]c3c2F)c1F (stereo not shown) [Example 52, 6-[3-(5-Chloro-2-methoxypyridine-3-sulfonamido)-2,6-difluorophenyl]-7-fluoro-N-(2-hydroxypropyl)-1H-indazole-3-carboxamide]"
2,< 500,"CNC(=O)c1n[nH]c2c(F)c(-c3c(F)ccc(NS(=O)(=O)c4cc(F)cnc4OC)c3F)ncc12 [Example 70, 6-[2,6-Difluoro-3-(5-fluoro-2-methoxypyridine-3-sulfonamido)phenyl]-7-fluoro-N-methyl-1H-pyrazolo[4,3-c]pyridine-3-carboxamide]"
3,< 500,"COc1ncc(Cl)cc1S(=O)(=O)Nc1ccc(F)c(-c2ccc3c(C(=O)NC(C)CCO)n[nH]c3c2F)c1F (stereo not shown) [Example 60, 6-[3-(5-chloro-2-methoxypyridine-3-sulfonamido)-2,6-difluorophenyl]-7-fluoro-N-(4-hydroxybutan-2-yl)-1H-indazole-3-carboxamide]"
4,< 500,"CCNC(=O)c1n[nH]c2c(F)c(-c3c(F)ccc(NS(=O)(=O)c4cc(Cl)cnc4OC)c3F)ccc12 [Example 49, 6-(3-((5-Chloro-2-methoxypyridine)-3-sulfonamido)-2,6-difluorophenyl)-N-ethyl-7-fluoro-1H-indazole-3-carboxamide]"
5,< 500,"CCC(C)NC(=O)c1n[nH]c2c(F)c(-c3c(F)ccc(NS(=O)(=O)c4cc(Cl)cnc4OC)c3F)ccc12 (stereo not shown) [Example 56, 6-[3-(5-Chloro-2-methoxypyridine-3-sulfonamido)-2,6-difluorophenyl]-7-fluoro-N-(sec-butyl)-1H-indazole-3-carboxamide]"
6,< 500,"CCCC(C)NC(=O)c1n[nH]c2c(F)c(-c3c(F)ccc(NS(=O)(=O)c4cc(Cl)cnc4OC)c3F)ccc12 (stereo not shown) [Example 59, 6-[3-(5-Chloro-2-methoxypyridine-3-sulfonamido)-2,6-difluorophenyl]-7-fluoro-N-(pentan-2-yl)-1H-indazole-3-carboxamide]"
7,< 500,"CNC(=O)c1n[nH]c2c(F)c(-c3c(F)ccc(NS(=O)(=O)c4cc(Cl)cnc4C)c3F)ncc12 [Example 72, 6-[3-(5-Chloro-2-methylpyridine-3-sulfonamido)-2,6-difluorophenyl]-7-fluoro-N-methyl-1H-pyrazolo[4,3-c]pyridine-3-carboxamide]"
8,< 500,"COc1ncc(Cl)cc1S(=O)(=O)Nc1ccc(F)c(-c2ccc3c(NC(C)=O)n[nH]c3c2F)c1F [Example 44, N-(6-(3-(5-chloro-2-methoxypyridine-3-sulfonamido)-2,6-difluorophenyl)-7-fluoro-1H-indazol-3-yl)acetamide]"
9,< 500,"COc1ncc(Cl)cc1S(=O)(=O)Nc1ccc(F)c(-c2ccc3c(C(=O)NCC(C)C)n[nH]c3c2F)c1F [Example 48, 6-[3-(5-Chloro-2-methoxypyridine-3-sulfonamido)-2,6-difluorophenyl]-7-fluoro-N-(2-methylpropyl)-1H-indazole-3-carboxamide]"
10,< 500,"COc1ncc(Cl)cc1S(=O)(=O)Nc1ccc(F)c(-c2ccc3c(C(=O)NC(C)CO)n[nH]c3c2F)c1F (stereo not shown) [Example 53, 6-[3-(5-Chloro-2-methoxypyridine-3-sulfonamido)-2,6-difluorophenyl]-7-fluoro-N-(1-hydroxypropan-2-yl)-1H-indazole-3-carboxamide]"
11,< 500,"CCCNC(=O)c1n[nH]c2c(F)c(-c3c(F)ccc(NS(=O)(=O)c4cc(Cl)cnc4OC)c3F)ccc12 [Example 58, 6-[3-(5-Chloro-2-methoxypyridine-3-sulfonamido)-2,6-difluorophenyl]-7-fluoro-N-propyl-1H-indazole-3-carboxamide]"
12,< 500,"CNC(=O)c1n[nH]c2c(F)c(-c3c(F)ccc(NS(=O)(=O)c4cc(Cl)cnc4OC)c3F)ncc12 [Example 67, 6-[3-(5-Chloro-2-methoxypyridine-3-sulfonamido)-2,6-difluorophenyl]-7-fluoro-N-methyl-1H-pyrazolo[4,3-c]pyridine-3-carboxamide]"
13,< 500,"CNC(=O)c1n[nH]c2c(F)c(-c3c(F)ccc(NS(=O)(=O)c4cc(Cl)cnc4OC)c3F)cc(C)c12 [Example 47, 6-[3-(5-chloro-2-methoxypyridine-3-sulfonamido)-2,6-difluorophenyl]-7-fluoro-N,4-dimethyl-1H-indazole-3-carboxamide]"
14,< 500,"CNC(=O)c1n[nH]c2c(F)c(-c3c(F)ccc(NS(=O)(=O)c4cc(Cl)cnc4OC(F)F)c3F)ccc12 [Example 45, 6-[3-[5-chloro-2-(difluoromethoxy)pyridine-3-sulfonamido]-2,6-difluorophenyl]-7-fluoro-N-methyl-1H-indazole-3-carboxamide]"
